Results from patent US8105608B2, “Method of treatment using ligand-immunogen conjugates” (Purdue Research Foundation, priority 2000, dated 2012).

Test system: M109 cells
Test: Survival of mice with M109 cells implanted intraperitoneally close to the liver
Format: in vivo
Settings: Example 16; folate-FITC 1500 nmoles/kg, IFN-α 7.5×10^4 units/day days 7, 8, 9, 11, 14; FITC-KLH immunized; 5 mice per group; PBS 17 days
Description: Furthermore, in an effort to reduce the time required to obtain long-term survival data, the tumor cells were implanted intraperitoneally close to the liver. […] Aminofluorescein was injected along with the various cytokine combinations as a control because this compound is not linked to folate and will not retarget anti-fluorescein antibodies to tumor cells.
Each mouse was injected with 0.2 ml of a 1:10 dilution of the antibody stock solution on days 1, 4, 9, and 14 after tumor implantation to achieve NK cell depletion.
Additionally, the animals were immunized with FITC-labeled keyhole limpit hemocyanin (KLH) rather than FITC-labeled BSA.
Aminofluorescein was injected along with the IL-2, IFN-α cytokine combination as a control because this compound is not linked to folate and will not retarget anti-fluorescein antibodies to tumor cells.
Additionally, the animals were immunized with DNP-labeled keyhole limpit hemocyanin (KLH).
Additionally, the animals (5 mice per group) were immunized with FITC-labeled keyhole limpit hemocyanin (KLH) rather than FITC-labeled BSA.

Substance: IFN-α
- median survival time: 17 days
